In patent US4215112A, “Tripeptides and methods” (Ortho Pharmaceutical Corporation, priority 1979, dated 1980):
Where a SMILES comes first, the peptide text is derived from it. Where no end group is shown, it is not given here. [ ]: non-standard residue; d: D form. Glx = not defined here; Sar = CNCC(=O)O

Tests used:
[1] = tested on: Th-1+ T lymphocytes (T-precursor cells of bone marrow); assay: chicken induction assay, Th-1+ T cells; type: cell-based
Source text: (§1) To determine the activity and characteristics of the tripeptide amide produced in Example I, the following chicken induction assay was employed. This assay is described in greater detail in Brand, et al., Science, 193, 319-321 (July 23, 1976) and references contained therein.
(§2) Bone marrow from newly-hatched chickens was selected as a source of inducible cells because it lacks an appreciable number of Bu-1^+ or Th-1^+ cells. Pooled cells from femur and tibiotarsus of five newly-hatched chicks of strain SC (Hy-Line) were fractionated by ultracentrifugation on a five-layer discontinuous bovine serum albumin (BSA) gradient. Cells from the two lighter layers were combined, washed, and suspended for incubation at a concentration of 5×10^6 cells per milliliter with the appropriate concentration of test polypeptide in RPMI 1630 medium supplemented with 15 mM hepes, 5 percent γ-globulin-free fetal calf serum, deoxyribonuclease (14 to 18 unit/ml), heparin (5 unit/ml), penicillin (100 unit/ml), and streptomycin (100 μg/ml). Controls were incubated with BSA (1 μg/ml) or medium alone. After incubation, the cells were tested in the cytotoxicity assay using chicken Cl and guinea pig C2 to C9 complement fractions as described in the reference article. The proportion of Bu-1^+ or Th-1^+ cells in each layer was calculated as a cytotoxicity index, 100 (a-b)/a, where a and b are the percentages of viable cells in the complement control and test preparation, respectively. The percentage of cells induced was obtained by subtracting the mean values in the control incubations without inducing agents (usually 1 to 3 percent) from those of the test inductions.
(§3) This high dose of ubiquitin inactivates the ubiquitin receptors and thus prevents the induction of cells by any agent which acts through these receptors.

[2] = tested on: Bu-1+ B lymphocytes (B-precursor cells of bone marrow); assay: chicken induction assay, Bu-1+ B cells; type: cell-based
Source text: as §1, §2, §3

[3] = tested on: immunocyte-precursor cells; assay: in vitro induction of differentiation of immunocyte-precursor cells (general statement); type: cell-based
Source text: Stated another way, the subject polypeptides have the capability of inducing differentiation of both Th-1^+ T-lymphocytes and Bu-1^+ B-lymphocytes.
The carrier may be any of the well-known carriers for this purpose including normal saline solutions, preferably with a protein diluent such as bovine serum albumin to prevent adsorptive losses to glassware at these low concentrations. The polypeptides of this invention are generally active when parenterally administered at a range of above about 1 μg/kg of body weight. For the treatment of DiGeorge Syndrome, the polypeptides may be parenterally administered at a rate of about 1 to about 100 μg/kg of body weight. Generally, the same range of dosage amounts may be used in treatment of the other conditions or diseases mentioned.

T cells and B cells = conditions: literature / copending application; cited from earlier work
T cells = conditions: E rosette assay; literature; cited from earlier work
[4] = bone marrow cells of newly-hatched chickens, cytotoxicity assay

## C[C@@H](NC(=O)[C@@H](N)CCCCN)C(=O)N[C@@H](CCC(N)=O)C(N)=O [H--LYS--D--ALA--GLN--NH2] (H-Lys-[dA]-Gln-NH2)
[1]; result in words
  biological activity: induction of differentiation of Th-1+ T cells: Biological activity similar to that of ubiquitin was observed
[2]; result in words
  biological activity: induction of differentiation of Bu-1+ B cells: Biological activity similar to that of ubiquitin was observed

## CN(CC(=O)N[C@@H](CCC(N)=O)C(N)=O)C(=O)[C@@H](N)CCCCN [amidated tripeptide of Example I, H--LYS--SAR--GLN--NH2] (H-Lys-[Sar]-Gln-NH2)
[3]
  concentration at which active: about 100 pg/ml
[1]; [4]
  concentration inducing the differentiation of Th-1+ T lymphocytes: 100 pg/mL
[1]; ubiquitin 100 μg/ml added
  effect of added ubiquitin on induction of Th-1+ T cells by the test polypeptide: inhibition of induction
[2]; [4]
  concentration inducing the differentiation of Bu-1+ B lymphocytes: 100 pg/mL
[2]; ubiquitin 100 μg/ml added
  effect of added ubiquitin on induction of Bu-1+ B cells by the test polypeptide: inhibition of induction

## GLX--ALA--LYS--SER--GLN--GLY--GLY--SER--ASN (Glx-AKSQGGSN; reading uncertain; also: N-terminal Glx: Gln or pyroglutamic acid, printed as GLX--ALA--LYS--SER--GLN--GLY--GLY--SER--ASN) [FTS, nonapeptide isolated from porcine serum; GLX is glutamine or pyroglutamic acid]
T cells and B cells
  differentiation of T cells and B cells: differentiated both T cells and B cells
T cells
  differentiation of T cells versus B cells: selectively differentiated T cells (and not B cells)

## H--ALA--LYS--SER--GLN--OH (H-AKSQ-OH) [tetrapeptide of copending application Ser. No. 960,550]
T cells and B cells
  differentiation of T cells and B cells: same activity as FTS

## H--SAR--LYS--SAR--GLN--NH2
T cells and B cells
  differentiation of T cells and B cells: same activity as FTS
